Patent EP4410284A1, “COMPOUND AND METHOD FOR THE TREATMENT OF ZELLWEGER SPECTRUM DISORDER” (Apteeus, priority 2023, dated 2024)
Structures can show the parent of a compound that is named as a salt.

How the values were obtained:
Type in all cases: cell-based, human
[1] = tested on: GM16513 cells; assay: Catalase import immunofluorescence, high-content screening (% importing cells); conditions: GM16513 cells, 3 days; for EC50 / Emax: Homo sapiens, 72 h, dose response with 6 concentrations; for EC50: read-out: EC50; for Emax: read-out: Max Efficacy (% Importing cells)
[2] = tested on: PEX405 cells; assay: Beta-oxidation of d4-C24:0 (LC-MS/MS); conditions: 3 days of treatment, dose response manner
Method: Degradation (to d4-C16:0) and elongation (to d4-C26:0 and d4-C28:0) of d4-VLCFA (very long chain fatty acid) in the cells was measured using d4-C24:0 as substrate (D-6145-CDN isotopes). D4-C24:0 was solubilized in culture medium using α-cyclodetrin, with a molar ratio of d4-C24:0:α-cyclodextrin 1:50. Cyclodextrins, which are cyclic oligosaccharides, are commonly used to solubilize fatty acids by complexation, for supplementation of cell culture media, and serve as vehicle to deliver fatty acids to the cells. Cyclodextrins have a polar surface and a hydrophobic cylindrical cavity that can bind and solubilize a wide variety of hydrophobic molecules, such as fatty acids, while remaining soluble in water. The assay was performed in T75 culture flasks for 3 or 10 days. The medium was replaced by fresh medium every 2-3 days and supplemented with d4-C24:0 for the last 3 days. After 3 or 10 days, cells were harvested and lysated in water (100-200 µL) by freeze/thaw cycle and sonication for 5 min. Total proteins were quantified using BCA assay and 100 µg of total proteins were used for each sample.
After cell lysis, the samples were dried using a rotating evaporator (Genevac EZ-2, SP Scientific), set at 40°C for 2h under vacuum. After evaporation, a hydrolysis mix consisting of 90% acetonitrile and 10% NaOH 1N in water was added to the samples. The samples were incubated for 1h at room temperature under stirring (300 rpm). After hydrolysis, the samples were evaporated using a Genevac device, under vacuum, at 40°C for 2h.
Derivation of free fatty acids was done using a 2.5 mg/mL Na2CO3 solution in DMF and a 2.5 mg/mL TMAE (trimethylammoniumethyl) reagent solution in DMF. The solutions were mixed in a 1:1 ratio, and 200 µL of the mix was added to dry samples to be derived. For the derivation, the samples were incubated for 3h at 50°C. DMF was then evaporated using a Genevac™ device, under vacuum, at 60°C for 4h.
Before injection, the samples were solubilized in a 90/10 acetonitrile/isopropanol mixture with 1% HCl. After solubilization, the samples were stirred and centrifuged at 4000 rpm for 20 min at 10°C.
For the separation of the derived fatty acids by liquid chromatography, a Waters Acquity ultra-performance liquid chromatography (UPLC) system (Acquity I-Class, Waters) was used. […]
After separation by liquid chromatography, the analytes were subjected to MS analysis using a Waters Xevo TQSmicro system (Waters). […] The molecules were analyzed using MRM (multiple reaction monitoring) mode, with the main daughter ion for each derived fatty acid corresponding to the loss of a trimethylammonium moiety (m/z 59). Derived FAs with a chain length from 16 to 28, with no or one unsaturation, were analyzed. […] The acquired data were analyzed by the Waters MassLynx software.

[3] = tested on: GM16513 cells; assay: Plasmalogens synthesis (LC-MS/MS)
Method: (§1) The assay was performed in T75 culture flasks for 3 or 10 days. The medium was replaced by fresh medium every 2-3 days. After 3 or 10 days, the cells were harvested and lysated in water (100-200 µL) by freeze/thaw cycle and sonication for 5 min. Total proteins were quantified using BCA assay and 100 µg of total proteins were used for each sample.
(§2) After cell lysis, the samples were dried using a rotating evaporator (Genevac EZ-2, SP Scientific), set at 40°C for 2h under vacuum. Then a solution containing water/acetonitrile 20/80 v/v was added to the wells. Before analysis, the samples were centrifuged at 4000 rpm for 20 min at room temperature. For the separation of plasmalogens by liquid chromatography, a Waters Acquity ultra-performance liquid chromatography (UPLC) system (Acquity I-Class, Waters) was used. A Waters Acquity UPLC BEH (Ethylene Bridged Hybrid) C8 column (2.1 × 50mm, particle size 1.7 µm, pore size 130 A, 2.1mm inner diameter) preceded by a metal pre-filter (KrudKatcher Ultra HPLC In-Line Filter, AF0-8497, Phenomenex) was used for separation. The column temperature was maintained at 50°C. The injection volume was 5µL for each analysis. The mobile phase A was composed of water + 0.1% formic acid and the mobile phase B was methanol + 0.1% formic acid. The separation was done using a gradient, with a flow rate set at 0.7 mL/min throughout the separation:
(§3) During analysis, the samples were kept at 10°C, and 5 µL of each sample were injected. After separation by liquid chromatography, the analytes were subjected to MS/MS analysis using a Waters Xevo TQSmicro system (Waters). The analytes were ionized using positive electrospray ionization (positive ESI). The molecules were analyzed using MRM mode. The analyzed plasmalogens contained moieties with C16:0, C18:0, C18:1 at the sn-1 position and fatty acid of chain-length 18 to 24 with 1 to 6 unsaturations at the sn-2 position. […] The cellular levels of plasmalogens were calculated using the area of each plasmalogen divided by protein quantity. […] The acquired data were analyzed by the Waters MassLynx software.

[4] = tested on: PEX405 cells; assay: Plasmalogens synthesis (LC-MS/MS); conditions: treatment over 3 days
Method: as §1, §2, §3

EC50 [1] [nM] | SMILES | % Importing cells ([1]; 1.3 µM) [%] | % Importing cells ([1]; 10 µM) [%] | Emax [1] [%] | d4-C16,C18,C20 and C22 levels [2] | plasmalogen levels ([3]; treatment over 3 days) | plasmalogen levels [4] | plasmalogen levels ([3]; 0.5 µM over 3 or 10 days)
170 | CCN(CC)Cc1ccc2cc(COC(=O)Nc3ccc(C(=O)NO)cc3)ccc2c1 [Givinostat (hydrochloride monohydrate), Givinostat] | 81 | 32 | 80 | increase | increased | increased | 
200 | O=C(/C=C/c1cccc(S(=O)(=O)Nc2ccccc2)c1)NO [Belinostat] | 95 | 97 | 98 |  |  |  | increased
